Where two headings read alike, the source gives them in different places. Each block holds one compound with its values, some of them ahead of it.
How the values were obtained:
Assay in all cases: Mode MIC of antibiotic and PA 1,1-Dioxide alone and in combination
Format in all cases: cell-based
Staphylococcus aureus = details: for MIC: Staphylococcus aureus, 18 h, read-out: Mode MIC alone
Text: (§1) As indicated hereinbefore, the compounds of formula I, wherein R^1 is hydrogen or an ester-forming residue readily hydrolyzable in vivo, are antibacterial agents of medium potency. […] The procedure which is followed is the one recommended by the International Collaborative Study on Antibiotic Sensitivity Testing (Ericcson and Sherris, Acta. Pathologica et Microbiologia Scandinav, Supp. 217, Section B: 64-68 [1971]), and employs brain heart infusion (BHI) agar and the inocula replicating device. Overnight growth tubes are diluted 100 fold for use as the standard inoculum (20,000-10,000 cells in approximately 0.002 ml. are placed on the agar surface; 20 ml. of BHI agar/dish). Twelve 2 fold dilutions of the test compound are employed, with initial concentration of the test drug being 200 mcg./ml. Single colonies are disregarded when reading plates after 18 hrs. at 37° C. The susceptibility (MIC) of the test organism is accepted as the lowest concentration of compound capable of producing complete inhibition of growth as judged by the naked eye.
(§2) The manner in which the said compounds of the formula I increase the effectiveness of a β-lactam antibiotic can be appreciated by reference to experiments in which the MIC of a given antibiotic alone, and a compound of the formula I wherein R^1 is hydrogen, alone, are measured. These MIC's are then compared with the MIC values obtained with a combination of the given antibiotic and the compound of the formula I wherein R^1 is hydrogen. […] The MIC values of combinations are measured using the method described by Barry and Sabath in "Manual of Clinical Microbiology", edited by Lenette, Spaulding and Truant, 2nd Edition, 1974, American Society for Microbiology.
(§3) From Table II, it can be seen that against 19 ampicillin-resistant strains of Staphylococcus aureus, the mode MIC of ampicillin, and of penicillanic acid 1,1-dioxide, is 200 mcg./ml. […] The other entries in Table II show enhancement of the antibacterial effectiveness of ampicillin against 26 ampicillin resistant strains of Haemophilus influenzae, 18 ampicillin resistant strains of Klebsiella pneumoniae, and 15 strains of the anerobe Bacteroides fragilis. Tables III, IV and V show enhancement of the antibacterial potency of benzylpenicillin (penicillin G) carbenicillin (α-carboxybenzylpenicillin) and cefazolin, respectively, against strains of S. aureus, H. influenzae, K. pneumoniae and Bacteroides fragilis.

Klebsiella pneumoniae = details: for MIC: Klebsiella pneumoniae, 18 h, read-out: Mode MIC alone
Text: as §1, §2, §3

Bacteroides fragilis = details: for MIC: Bacteroides fragilis, 18 h, read-out: Mode MIC alone
Text: as §1, §2, §3

Haemophilus influenzae = details: for MIC: Haemophilus influenzae, 18 h, alone
Text: as §1, §2, §3

SMILES: CC1(C)S[C@@H]2[C@H](NC(=O)Cc3ccccc3)C(=O)N2[C@H]1C(=O)O [penicillin G, reference compound]
MIC (Staphylococcus aureus): 200 µg/mL | Mode MIC's of penicillin G and PA 1,1-Dioxide in combination (Staphylococcus aureus; Table III, 20 strains, penicillin G + PA 1,1-Dioxide in combination): 3.12 µg/mL | MIC (Klebsiella pneumoniae): 400 µg/mL | Mode MIC's of penicillin G and PA 1,1-Dioxide in combination (Klebsiella pneumoniae; Table III, 24 strains, penicillin G + PA 1,1-Dioxide in combination): 25 µg/mL | MIC (Bacteroides fragilis): 25 µg/mL | Mode MIC's of penicillin G and PA 1,1-Dioxide in combination (Bacteroides fragilis; Table III, 15 strains, penicillin G + PA 1,1-Dioxide in combination): 1.56 µg/mL | MIC (Haemophilus influenzae; read-out: Mode MIC alone, Table III, 25 strains): 50 µg/mL | Mode MIC's of penicillin G and PA 1,1-Dioxide in combination (Haemophilus influenzae; Table III, 25 strains, penicillin G + PA 1,1-Dioxide in combination): 0.78 µg/mL

MIC (Staphylococcus aureus; Table II, 19 ampicillin-resistant strains, alone): 200 µg/mL | Mode MIC's of ampicillin and PA 1,1-Dioxide in combination (Staphylococcus aureus; Table II, 19 ampicillin-resistant strains, ampicillin + PA 1,1-Dioxide in combination): 1.56 µg/mL | MIC (Klebsiella pneumoniae; Table II, 18 ampicillin resistant strains, alone): > 400 µg/mL | Mode MIC's of ampicillin and PA 1,1-Dioxide in combination (Klebsiella pneumoniae; Table II, 18 ampicillin resistant strains, ampicillin + PA 1,1-Dioxide in combination): 6.25 µg/mL | MIC (Bacteroides fragilis; Table II, 15 strains, alone): 50 µg/mL | Mode MIC's of ampicillin and PA 1,1-Dioxide in combination (Bacteroides fragilis; Table II, 15 strains, ampicillin + PA 1,1-Dioxide in combination): 1.56 µg/mL | MIC (Haemophilus influenzae; Table II, 26 ampicillin resistant strains, read-out: Mode MIC alone): 200 µg/mL | Mode MIC's of ampicillin and PA 1,1-Dioxide in combination (Haemophilus influenzae; Table II, 26 ampicillin resistant strains, ampicillin + PA 1,1-Dioxide in combination): 0.78 µg/mL
SMILES: CC1(C)S[C@@H]2[C@H](NC(=O)[C@H](N)c3ccccc3)C(=O)N2[C@H]1C(=O)O [ampicillin, reference compound]

MIC (Staphylococcus aureus; Table V, 20 strains, alone): 0.78 µg/mL | Mode MIC's of Cefazolin and PA 1,1-Dioxide in Combination (Staphylococcus aureus; Table V, 20 strains, Cefazolin + PA 1,1-Dioxide in combination): 0.2 µg/mL | MIC (Klebsiella pneumoniae; Table V, 3 strains, alone): 100 µg/mL | Mode MIC's of Cefazolin and PA 1,1-Dioxide in Combination (Klebsiella pneumoniae; Table V, 3 strains, Cefazolin + PA 1,1-Dioxide in combination): 6.25 µg/mL | MIC (Bacteroides fragilis; Table V, 15 strains, alone): 200 µg/mL | Mode MIC's of Cefazolin and PA 1,1-Dioxide in Combination (Bacteroides fragilis; Table V, 15 strains, Cefazolin + PA 1,1-Dioxide in combination): 6.25 µg/mL | MIC (Haemophilus influenzae; Table V, 25 strains, read-out: Mode MIC alone): 25 µg/mL | Mode MIC's of Cefazolin and PA 1,1-Dioxide in Combination (Haemophilus influenzae; Table V, 25 strains, Cefazolin + PA 1,1-Dioxide in combination): 3.12 µg/mL
SMILES: Cc1nnc(SCC2=C(C(=O)O)N3C(=O)[C@@H](NC(=O)Cn4cnnn4)[C@H]3SC2)s1 [Cefazolin, reference compound]

Source: patent US4234579A, “Penicillanic acid 1,1-dioxides as β-lactamase inhibitors” (priority 1979, dated 1980)
